Active and inactive are the calls of the source. The calls are words filed in the database; no cut-off is given here.
Assays:
HeLa [1] = test: Cytotoxicity against human HeLa cells by MTT assay
[2] = Cytotoxicity against human HCT116 cells by MTT assay; type: functional, cell-based; conditions: HCT-116
A549 = test: Cytotoxicity against human A549 cells by MTT assay; type: functional, cell-based
Vero = test: Cytotoxicity against African green monkey Vero cells by MTT assay; type: cell-based; conditions: Chlorocebus sabaeus
HeLa [3] = test: Induction of apoptosis in human HeLa cells assessed as accumulation at subG1 phase at 25 uM by propidium iodide staining based flow cytometry; type: functional, cell-based; conditions: TDE = time-dependent effect
EAT [4] = test: Antitumor activity against mouse EAT implanted in Swiss albino mouse assessed as reduction in body weight at 10 mg/kg injected into peritoneum and measured on day 11; type: functional, organism-based; parameters: dose 10 mg/kg
EAT [5] = test: Antitumor activity against mouse EAT implanted in Swiss albino mouse assessed as reduction in ascites fluid volume at 10 mg/kg injected into peritoneum and measured on day 12; type: functional, organism-based; parameters: dose 10 mg/kg
EAT [6] = test: Antitumor activity against mouse EAT implanted in Swiss albino mouse assessed as reduction in tumor cell viability at 10 mg/kg injected into peritoneum and measured on day 12 by trypan blue dye exclusion assay; type: functional, organism-based; parameters: dose 10 mg/kg
EAT [7] = test: Inhibition of peritoneal angiogenesis of mouse EAT implanted in Swiss albino mouse at 10 mg/kg injected into peritoneum; type: functional, organism-based; parameters: dose 10 mg/kg
EAT [8] = test: (§1) Inhibition of peritoneal angiogenesis of mouse EAT implanted in Swiss albino mouse assessed as reduction in micro vessel density at 10 mg/kg injected into peritoneum by hematoxylin and eosin staining method; type: functional, organism-based; parameters: dose 10 mg/kg
[9] = as §1, with “density by measuring number of micro vessels per high power field” for “density”, “method (reference value: 54 +/- 6 vessels/high power field)” for “method”; type: functional
[10] = Inhibition of VEGF production in mouse EAT implanted in Swiss albino mouse peritoneal cavity at 10 mg/kg injected into peritoneum by ELISA method (reference value: 2412 +/- 10 ng); type: functional
EAT [11] = test: […] of apoptosis in mouse EAT implanted in Swiss albino mouse assessed as induction of DNA fragmentation at 10 mg/kg injected into peritoneum by ethidium bromide staining based electrophoresis method; type: functional, organism-based; parameters: dose 10 mg/kg
EAT [12] = test: […] of apoptosis in mouse EAT implanted in Swiss albino mouse assessed as induction of cell shrinkage at 10 mg/kg injected into peritoneum by Giemsa staining based microscopy; type: functional, organism-based; parameters: dose 10 mg/kg
EAT [13] = test: […] of apoptosis in mouse EAT implanted in Swiss albino mouse assessed as induction of small blebs formation at 10 mg/kg injected into peritoneum by Giemsa staining based microscopy; type: functional, organism-based; parameters: dose 10 mg/kg
EAT [14] = test: […] of apoptosis in mouse EAT implanted in Swiss albino mouse assessed as induction of apoptotic bodies formation at 10 mg/kg injected into peritoneum by Giemsa staining based microscopy; type: functional, organism-based; parameters: dose 10 mg/kg

Q: With `CCCc1nc2c(C)cc(-c3nc4ccccc4n3C)cc2n1S(=O)(=O)c1ccc(OC)cc1` as the molecule, how does the IC50 (HeLa [1]) read?
A: The IC50 was 18.3 µM.

Q: What about the IC50 [2] of the same molecule?
A: The IC50 was 19.1 µM.

Q: And the IC50 (A549)?
A: The IC50 was 34.7 µM.

Q: What about the IC50 (Vero) of the same molecule?
A: Its IC50 is greater than 50 µM.

Q: What does the source list for `CCCc1nc2c(C)cc(-c3nc4ccccc4n3C)cc2n1S(=O)(=O)c1ccccc1`?
A: IC50 (HeLa [1]): 23.8 µM; IC50 [2]: > 50 µM; IC50 (A549): > 50 µM; IC50 (Vero): > 50 µM

Q: Which IC50 (HeLa [1]) does the source give for `CCCc1nc2c(C)cc(-c3nc4ccccc4n3C)cc2n1S(=O)(=O)c1ccc(Br)cc1` here?
A: The IC50 was 24.7 µM.

Q: What about the IC50 [2] of the same molecule?
A: The IC50 was 49.3 µM.

Q: What about the IC50 (A549) of the same molecule?
A: The IC50 was 35.1 µM.

Q: And the IC50 (Vero)?
A: The IC50 was greater than 50 µM.

Q: Which results are given for `CCCc1nc2c(C)cc(-c3nc4ccccc4n3C)cc2n1S(=O)(=O)c1ccc(C)cc1`?
A: IC50 (HeLa [1]): 20.1 µM; IC50 [2]: 41.6 µM; IC50 (A549): > 50 µM; IC50 (Vero): > 50 µM

Q: Which IC50 (HeLa [1]) does the source give for `CCCc1nc2c(C)cc(-c3nc4ccccc4n3C)cc2n1S(=O)(=O)c1ccc(Cl)cc1` here?
A: The IC50 was 21.4 µM.

Q: What about the IC50 [2] of the same molecule?
A: Its IC50 is 36.8 µM.

Q: And the IC50 (A549)?
A: The IC50 was greater than 50 µM.

Q: What about the IC50 (Vero) of the same molecule?
A: The IC50 was greater than 50 µM.

Q: For `CCCc1nc2c(C)cc(-c3nc4ccccc4n3C)cc2n1S(=O)(=O)c1ccc(F)cc1`, which IC50 (HeLa [1]) is on record?
A: Its IC50 is 16.7 µM.

Q: What about the IC50 [2] of the same molecule?
A: The IC50 was 19.9 µM.

Q: What about the IC50 (A549) of the same molecule?
A: Its IC50 is 32.2 µM.

Q: What about the IC50 (Vero) of the same molecule?
A: The IC50 was greater than 50 µM.

Q: And the Activity (HeLa [3])?
A: The Activity was “tde”.

Q: And the inhibition (EAT [4])?
A: Its inhibition is “Active”.

Q: And the inhibition (EAT [5])?
A: Its inhibition is “Active”.

Q: What about the inhibition (EAT [6]) of the same molecule?
A: Its inhibition is “Active”.

Q: What about the inhibition (EAT [7]) of the same molecule?
A: Its inhibition is “Active”.

Q: And the inhibition (EAT [8])?
A: The inhibition was “Active”.

Q: And the Activity [9]?
A: The Activity was 8.

Q: And the Activity [10]?
A: The Activity was 225 ng.

Q: What about the Activity (EAT [11]) of the same molecule?
A: The Activity was “Active”.

Q: What about the Activity (EAT [12]) of the same molecule?
A: The Activity was “Active”.

Q: What about the Activity (EAT [13]) of the same molecule?
A: Its Activity is “Active”.

Q: What about the Activity (EAT [14]) of the same molecule?
A: Its Activity is “Active”.

Q: Which IC50 (HeLa [1]) does the source give for `CCCc1nc2c(C)cc(-c3nc4ccccc4n3C)cc2n1S(=O)(=O)c1cc(Cl)ccc1Cl` here?
A: The IC50 was greater than 50 µM.

Q: For `CCCc1nc2c(C)cc(-c3nc4ccccc4n3C)cc2n1S(=O)(=O)c1ccccc1Cl`, which IC50 (HeLa [1]) is on record?
A: Its IC50 is greater than 50 µM.

Q: For `CCCc1nc2c(C)cc(-c3nc4ccccc4n3C)cc2n1S(=O)(=O)c1c(C)cc(C)cc1C`, which IC50 (HeLa [1]) is on record?
A: Its IC50 is 21 µM.

Q: What about the IC50 [2] of the same molecule?
A: The IC50 was 29.9 µM.

Q: What about the IC50 (A549) of the same molecule?
A: Its IC50 is greater than 50 µM.

Q: And the IC50 (Vero)?
A: The IC50 was greater than 50 µM.

Q: Which IC50 (HeLa [1]) does the source give for `CCCc1nc2c(C)cc(-c3nc4ccccc4n3C)cc2n1S(=O)(=O)c1ccccc1Br` here?
A: Its IC50 is greater than 50 µM.

Source: ChEMBL document CHEMBL3425451, “Novel synthetic bisbenzimidazole that targets angiogenesis in Ehrlich ascites carcinoma bearing mice” (Bioorg Med Chem Lett, 2015)
